According to ChEMBL document CHEMBL4665908, “Estrogen Receptor Degrading PROTACS for the Treatment of Breast Cancer” (ACS Med Chem Lett, 2020):

Each compound was assayed against Protein cereblon/Estrogen receptor (Homo sapiens, UniProt P03372+Q96SW2) (assay: Protac activity at CRBN/ERalpha in human MCF7 cells assessed as induction of ERalpha protein degradation incubated for 8 to 22 hrs by immunofluorescence assay).
Type: cell-based

Chain of Protein cereblon/Estrogen receptor (Q96SW2 whole entry, one chain of several): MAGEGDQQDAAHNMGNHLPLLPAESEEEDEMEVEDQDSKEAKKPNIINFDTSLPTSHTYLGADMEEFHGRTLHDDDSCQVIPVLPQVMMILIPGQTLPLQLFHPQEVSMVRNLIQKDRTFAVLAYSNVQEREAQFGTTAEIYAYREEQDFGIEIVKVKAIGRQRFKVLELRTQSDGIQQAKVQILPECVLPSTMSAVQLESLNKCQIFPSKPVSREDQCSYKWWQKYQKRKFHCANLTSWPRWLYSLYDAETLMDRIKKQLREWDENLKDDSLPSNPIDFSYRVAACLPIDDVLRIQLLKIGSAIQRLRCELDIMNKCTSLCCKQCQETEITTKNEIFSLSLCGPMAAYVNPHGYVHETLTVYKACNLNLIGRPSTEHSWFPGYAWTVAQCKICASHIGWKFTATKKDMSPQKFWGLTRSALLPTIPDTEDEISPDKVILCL

First: COc1cc(N2CCN(CCC3CCN(c4ncc([C@@H]5c6[nH]c7ccccc7c6C[C@@H](C)N5CC(C)(C)F)cn4)CC3)CC2)cc2c1C(=O)N(C1CCC(=O)NC1=O)C2 (stereo partly drawn)
Second: COc1cc(N2CCN(CC3CCN(c4ncc([C@@H]5c6[nH]c7ccccc7c6C[C@@H](C)N5CC(C)(C)F)cn4)CC3)CC2)cc2c1C(=O)N(C1CCC(=O)NC1=O)C2 (stereo partly drawn)
The IC50 of the first is 1.7-fold lower: 0.4 nM for the first, 0.7 nM for the second.

Compared with `C[C@@H]1Cc2c([nH]c3ccccc23)[C@@H](c2cnc(N3CCC4(CC3)CC(CN3CC5(CCN(c6ccc7c(c6)CN(C6CCC(=O)NC6=O)C7=O)CC5)C3)C4)nc2)N1CC(C)(C)F` (stereo partly drawn), `C[C@@H]1Cc2c([nH]c3ccccc23)[C@@H](c2cnc(N3CCC4(CCN(CCC5CCN(c6ccc7c(c6)CN(C6CCC(=O)NC6=O)C7=O)CC5)CC4)CC3)nc2)N1CC(C)(C)F` (stereo partly drawn) is 2-fold higher in IC50: 0.4 nM for the first, 0.8 nM for the second.

`C[C@@H]1Cc2c([nH]c3ccccc23)[C@@H](c2cnc(N3CCC(CN4CCN(CC5CCN(c6ccc7c(c6)CN(C6CCC(=O)NC6=O)C7=O)CC5)CC4)CC3)nc2)N1CC(C)(C)F` (stereo partly drawn) and `C[C@@H]1Cc2c([nH]c3ccccc23)[C@@H](c2cnc(N3CCC(CCN4CCN(c5ccc6c(c5)CN(C5CCC(=O)NC5=O)C6=O)CC4)CC3)nc2)N1CC(C)(C)F` (stereo partly drawn) are within 1.5-fold of each other in IC50: 0.6 nM for the first, 0.5 nM for the second.

`C[C@@H]1Cc2c([nH]c3ccccc23)[C@@H](c2cnc(OC3CCC4(CC3)CCN(CC3CCN(c5ccc6c(c5)CN(C5CCC(=O)NC5=O)C6=O)CC3)CC4)nc2)N1CC(C)(C)F` (stereo partly drawn) and `C[C@@H]1Cc2c([nH]c3ccccc23)[C@@H](c2cnc(N3CCC(CCN4CCC5(CC4)CCN(c4ccc6c(c4)CN(C4CCC(=O)NC4=O)C6=O)CC5)CC3)nc2)N1CC(C)(C)F` (stereo partly drawn) are the same in IC50: 0.4 nM for the first, 0.4 nM for the second.

`C[C@@H]1Cc2c([nH]c3ccccc23)[C@@H](c2cnc(N3CCC(OCCN4CCN(c5ccc6c(c5)CN(C5CCC(=O)NC5=O)C6=O)CC4)CC3)nc2)N1CC(C)(C)F` (stereo partly drawn) and `C[C@@H]1Cc2c([nH]c3ccccc23)[C@@H](c2cnc(N3CCC(CCN4CCOC5(CC4)CCN(c4ccc6c(c4)CN(C4CCC(=O)NC4=O)C6=O)CC5)CC3)nc2)N1CC(C)(C)F` (stereo partly drawn) are the same in IC50: 0.5 nM for the first, 0.5 nM for the second.

`C[C@@H]1Cc2c([nH]c3ccccc23)[C@@H](c2c(F)cc(OCCCCCN3CCN(c4ccc5c(c4)CN(C4CCC(=O)NC4=O)C5=O)CC3)cc2F)N1CC(C)(C)F` (stereo partly drawn) and `C[C@@H]1Cc2c([nH]c3ccccc23)[C@@H](c2cnc(N3CCC(CN4CCOC5(CC4)CCN(c4ccc6c(c4)CN(C4CCC(=O)NC4=O)C6=O)CC5)CC3)nc2)N1CC(C)(C)F` (stereo partly drawn) are within 1.5-fold of each other in IC50: 0.6 nM for the first, 0.4 nM for the second.

The compounds below were run against T1, Estrogen receptor (Homo sapiens, UniProt P03372) (assay: Displacement of fluorescent ligand from human recombinant GST-tagged ER-alpha ligand binding domain (307 to 554 residues) incubated for 15 mins by TR-FRET based competitive assay).
T1 sequence (P03372 whole entry): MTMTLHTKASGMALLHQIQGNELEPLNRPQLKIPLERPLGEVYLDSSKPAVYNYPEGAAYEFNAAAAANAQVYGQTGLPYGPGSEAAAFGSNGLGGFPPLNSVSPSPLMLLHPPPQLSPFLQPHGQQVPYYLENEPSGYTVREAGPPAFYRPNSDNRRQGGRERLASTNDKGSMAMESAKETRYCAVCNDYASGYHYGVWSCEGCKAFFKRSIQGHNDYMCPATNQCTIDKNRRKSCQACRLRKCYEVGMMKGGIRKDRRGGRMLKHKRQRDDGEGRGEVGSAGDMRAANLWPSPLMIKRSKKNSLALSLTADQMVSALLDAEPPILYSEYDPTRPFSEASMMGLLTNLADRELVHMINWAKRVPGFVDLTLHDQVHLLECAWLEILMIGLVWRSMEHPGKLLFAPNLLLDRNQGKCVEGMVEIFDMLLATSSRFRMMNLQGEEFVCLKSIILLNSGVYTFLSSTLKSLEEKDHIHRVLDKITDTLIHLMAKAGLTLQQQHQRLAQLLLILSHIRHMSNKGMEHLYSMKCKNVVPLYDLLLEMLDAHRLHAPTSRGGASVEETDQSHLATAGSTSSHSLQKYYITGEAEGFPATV

Compound `C[C@@H]1Cc2c([nH]c3ccccc23)[C@@H](c2cnc(N3CCC4(CC3)CC(CN3CC5(CCN(c6ccc7c(c6)CN(C6CCC(=O)NC6=O)C7=O)CC5)C3)C4)nc2)N1CC(C)(C)F` (stereo partly drawn) has an IC50 of 1.9 nM.
